Measured values reported in patent US20130158122A1, “EP2 Agonist from Non-Prostanoid Structures Designed as PGE2 Antagonists” (ALLERGAN, INC., priority 2010, published 2013).

Tested on: Beagle dogs
Experiment: Intraocular pressure studies in dogs (applanation pneumatonometry)
Format: in vivo
Details: conscious Beagle dogs, topical to one eye, approx. 35 μl, IOP before and at 2, 4, 6 hours on each day of 5 day study; vehicle in other eye
Experimental: Measurement of intraocular pressure studies in dogs will involve applanation pneumatonometry performed in Beagle dogs of both sexes. The animals will remain conscious throughout the study and will be gently restrained by hand. Compound 4-{[5-chloro-2-(4-chloro-benzyloxy)-benzoylamino]-methyl}-benzoic acid will be administered topically to one eye using a dropper bottle to deliver approximately a 35 μl volume, the other eye received vehicle (1% polysorbate 80 in 5 mM Tris HCl) as a control. Proparacaine at 0.25% was used for corneal anesthesia during tonometry. Intraocular pressure will be determined just before drug administration and at 2, 4, 6 hours thereafter on each day of the 5 day study. Measurement of ocular surface hyperemia will be performed immediately before each of the intraocular pressure readings. Ocular surface hyperemia grading will be semi-quantitative and assessed according to a 5 point scoring scale used for clinical evaluations: 0=none; 0.5=trace; 1=mild; 2=moderate; and 3=severe.

SMILES: O=C(O)c1ccc(CNC(=O)c2cc(Cl)ccc2OCc2ccc(Cl)cc2)cc1 [4-{[5-chloro-2-(4-chloro-benzyloxy)-benzoylamino]-methyl}-benzoic acid]
- intraocular pressure: significantly reduce intraocular pressure
